Measured values published in ChEMBL document CHEMBL1201862, “PubChem BioAssay data set” (2004).
Where a name gives a salt, the structure may show the parent alone. Activity calls are given as the source filed them.

How the values were obtained:
[1] = target: T1, Protein Tat (Human immunodeficiency virus type 1 group M subtype B (isolate HXB2)(HIV-1), UniProt P04608); type: functional;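 also: tat binding to TAR RNA read out by fluorescence polarization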
T1 sequence (P04608 whole entry): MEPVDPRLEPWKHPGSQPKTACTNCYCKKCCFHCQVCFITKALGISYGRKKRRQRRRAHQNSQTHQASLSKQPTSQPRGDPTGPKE

[2] = viability loss in THP-1 monocytes – THP-1 cells, cytotoxicity control for Vif-APOBEC3G degradation inhibitor project, dose response (AID 1117359); type: functional; details: THP-1
[3] = rise of 4N DNA cells, HeLa – IC50, dose response (AID 1117351); type: functional, cell-based
[4] = target: Paired box protein Pax-8 (Homo sapiens, UniProt Q06710); assay: PAX8 transcriptional activity inhibition in RMG-I – RMG-I cells, luciferase, cherry-pick, dose response (AID 687027); type: functional, cell-based;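 also: luciferase reporter driven by Pax8 target thyroperoxidase promoter measured by SteadyGlo luminescence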
[5] = rise of 2N DNA cells, HeLa – IC50, dose response (AID 1117349); type: functional, cell-based
[6] = target: T2, Heat shock factor protein 1 (Mus musculus, UniProt P38532); assay: decrease of HSF1-responsive luciferase luminescence – cell-based, NIH3T3, dose retest, confirmation (AID 2382); type: functional;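 also: NIH3T3 fibroblasts with HSF1-driven luciferase reporter stressed by proteasome inhibitor MG132; luminescence from HSF1-driven luciferase expression after 8 hours of MG132 stress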
T2 sequence (P38532 whole entry): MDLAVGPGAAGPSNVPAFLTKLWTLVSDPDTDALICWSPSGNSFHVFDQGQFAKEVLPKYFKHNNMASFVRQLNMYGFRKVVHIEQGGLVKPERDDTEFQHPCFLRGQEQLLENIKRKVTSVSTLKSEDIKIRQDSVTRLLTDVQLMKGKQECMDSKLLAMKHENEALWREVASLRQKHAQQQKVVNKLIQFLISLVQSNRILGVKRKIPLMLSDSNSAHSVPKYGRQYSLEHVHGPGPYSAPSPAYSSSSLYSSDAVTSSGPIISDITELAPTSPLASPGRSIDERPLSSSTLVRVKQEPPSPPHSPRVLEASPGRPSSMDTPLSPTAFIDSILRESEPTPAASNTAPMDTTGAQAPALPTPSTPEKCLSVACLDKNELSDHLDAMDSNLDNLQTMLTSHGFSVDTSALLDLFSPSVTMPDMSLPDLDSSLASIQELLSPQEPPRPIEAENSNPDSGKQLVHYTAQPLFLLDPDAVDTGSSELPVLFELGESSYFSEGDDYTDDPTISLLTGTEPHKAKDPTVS

[7] = fluconazole-exposed Candida albicans growth modulators – fluorescence, retest, confirmation (AID 2467); type: functional, cell-based
[8] = NIH-3T3 fibroblast cytotoxicity, dose response, cytotoxicity control, cell-based, fluorescence, Alamar Blue, secondary assay (AID 2327); type: functional;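 also: NIH-3T3 mouse fibroblasts cultured with fluconazole at 8 µg/mL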
[9] = test system: Streptococcus; assay: GAS UMAA2166 growth inhibition – luminescence, BacTiterGlo, counter-screen for streptokinase expression inhibitor project, dose response (AID 1915); type: functional, organism-based;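 also: potency for reduction of bacterial viability or growth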
[10] = test system: Streptococcus sp. 'group A'; assay: Streptococcus pyogenes SK(-)GAS viability under kanamycin – luminescence, BacTiterGlo, confirmation, counter-screen for streptokinase expression inhibitor project, dose response (AID 1900); type: functional, organism-based
[11] = target: T3, Streptokinase A (Streptococcus pyogenes serotype M1, UniProt P10520); assay: viability-normalized secreted streptokinase activity reduction – plasminogen activation absorbance, OD405, dose response (AID 1914); type: functional, Streptococcus pyogenes M1 GAS;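 also: secreted streptokinase activity via plasminogen activation per viability signal from cell pellet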
T3 sequence (P10520 whole entry): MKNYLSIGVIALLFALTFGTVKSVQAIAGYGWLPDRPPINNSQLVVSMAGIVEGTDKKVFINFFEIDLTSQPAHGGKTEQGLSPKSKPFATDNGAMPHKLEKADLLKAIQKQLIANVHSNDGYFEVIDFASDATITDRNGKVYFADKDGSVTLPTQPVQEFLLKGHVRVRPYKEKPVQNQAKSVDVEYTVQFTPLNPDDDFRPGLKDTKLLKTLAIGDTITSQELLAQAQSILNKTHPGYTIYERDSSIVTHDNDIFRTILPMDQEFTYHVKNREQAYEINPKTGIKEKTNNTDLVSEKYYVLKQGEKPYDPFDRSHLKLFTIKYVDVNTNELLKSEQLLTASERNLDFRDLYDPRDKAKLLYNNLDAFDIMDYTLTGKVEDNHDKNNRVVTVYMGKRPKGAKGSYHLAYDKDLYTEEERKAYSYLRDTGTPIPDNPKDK

[12] = target: T4, Oxysterols receptor LXR-beta (Homo sapiens, UniProt P55055); assay: LXR agonists, Gal4 luciferase reporter, dose response, counter-screen for ssDAF-12 agonist project, cell-based, luminescence, HEK293, S. stercoralis campaign (AID 720737); type: functional; details: read-out: IC50 (the source's name)
T4 sequence (P55055 whole entry): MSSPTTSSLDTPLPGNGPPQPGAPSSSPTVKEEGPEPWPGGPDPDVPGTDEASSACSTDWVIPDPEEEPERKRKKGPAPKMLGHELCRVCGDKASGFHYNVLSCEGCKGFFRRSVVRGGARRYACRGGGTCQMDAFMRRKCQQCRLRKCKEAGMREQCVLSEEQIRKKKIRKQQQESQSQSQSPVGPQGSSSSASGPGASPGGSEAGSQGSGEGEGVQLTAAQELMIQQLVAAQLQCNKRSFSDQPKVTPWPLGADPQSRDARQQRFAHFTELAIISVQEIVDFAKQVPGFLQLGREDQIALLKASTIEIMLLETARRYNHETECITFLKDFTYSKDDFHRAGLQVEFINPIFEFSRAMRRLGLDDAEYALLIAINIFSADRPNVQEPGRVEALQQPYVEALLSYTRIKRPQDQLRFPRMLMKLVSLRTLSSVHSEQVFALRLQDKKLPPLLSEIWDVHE

[13] = Luminescence-based cell-based high throughput dose response assay to identify activators of the DAF-12 from the parasite S. stercoralis (ssDAF-12).; type: functional

Chain of Paired box protein Pax-8 (Q06710 whole entry): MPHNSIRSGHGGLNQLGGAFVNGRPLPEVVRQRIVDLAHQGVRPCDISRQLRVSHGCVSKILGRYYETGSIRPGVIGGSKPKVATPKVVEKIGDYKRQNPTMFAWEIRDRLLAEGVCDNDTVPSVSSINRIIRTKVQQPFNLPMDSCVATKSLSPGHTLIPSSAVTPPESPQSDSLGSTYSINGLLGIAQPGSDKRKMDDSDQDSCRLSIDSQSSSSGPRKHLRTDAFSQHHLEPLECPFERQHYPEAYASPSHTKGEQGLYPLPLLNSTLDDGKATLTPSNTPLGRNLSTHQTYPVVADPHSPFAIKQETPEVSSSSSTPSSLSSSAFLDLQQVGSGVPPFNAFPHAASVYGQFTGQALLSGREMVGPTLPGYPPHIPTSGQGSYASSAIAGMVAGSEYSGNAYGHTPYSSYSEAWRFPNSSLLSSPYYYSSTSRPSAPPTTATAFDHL

With `CC(C)(C)OC(=O)N(Cc1ccccc1)Cc1cccc(OCc2cccc(NC(=O)c3ccccc3)c2)c1` as the compound, how does the IC50 [1] read?
Its IC50 is > 100 µM (active).

And the CC50 [2]?
Its CC50 is > 40 µM (active).

Which results are given for `CN(C)N=Nc1[nH]cnc1C(N)=O`?
IC50 [3]: > 10 µM (inactive); AC50 [4]: 5.34 µM (active); IC50 [5]: > 10 µM (inactive)

For `CC(=O)[C@]1(O)Cc2c(O)c3c(c(O)c2[C@@H](O[C@H]2C[C@H](N)[C@H](O)[C@H](C)O2)C1)C(=O)c1ccccc1C3=O` [IDARUBICIN HYDROCHLORIDE], which EC50 [6] is on record?
Its EC50 is 3.01 µM (inconclusive).

And the IC50 [3]?
Its IC50 is > 10 µM (inactive).

What about the EC50 [7] of the same compound?
Its EC50 is > 38 µM (not active).

And the IC50 [5]?
Its IC50 is 0.0111 µM (active).

And the EC50 [8]?
Its EC50 is 0.178 µM (inconclusive).

What about the EC50 [9] of the same compound?
Its EC50 is 2.6 µM (active).

And the EC50 [10]?
The EC50 was 1.07 µM (active).

What about the EC50 [11] of the same compound?
The EC50 was > 150 µM (not active).

Which EC50 [12] does the source give for `O=C(O)c1cccc(N2C(=O)c3ccc(C(=O)c4cccc([N+](=O)[O-])c4)cc3C2=O)c1` here?
Its EC50 is > 67.5 µM (inactive).

And the IC50 [13]?
Its IC50 is > 67.5 µM (inactive).
